Compound | melting point
Cc1cc(-c2cncc(OC3SCC(O)C(O)C3O)c2)ccc1C#N (stereo not given) | 198 to 200 °C
O=C(NCC1(c2ccccc2)CCCC1)Nc1ccc(F)cc1F | 160 to 161 °C
CC(C)(CN1CCCCC1)Nc1ccnc2cc(Cl)ccc12 | 143 to 147 °C
C1=CNc2ccccc2C=N1 | 165 to 167 °C
Cc1nc2c(OCCCc3ccccc3)cccn2c1CC#N | 143 to 145 °C
O=C(C1CCCC1)N1CCc2cc(S(=O)(=O)N3CCN(c4cccc(Cl)c4)CC3)ccc21 | 166 to 167 °C
O=C1CC(=O)OC(CCl)C1 (single isomer, unassigned; (-)) | 98 to 99 °C
NC(=O)N1CCSC1c1ccccc1OCCN1CCN(c2cccc(F)c2)CC1 (stereo not given) | 142 to 143 °C
CCOC(=O)c1ccc(NC)c(C(O)c2ccccc2)c1 (stereo not given) | 132 to 135 °C
COc1ccc2c(CCBr)c[nH]c2c1 | 98 to 101 °C
OC[C@@H](O)CCc1ccc2ccccc2c1O | 105 to 108 °C
c1coc(-c2cc3[nH]ccn3n2)c1 | 186 to 188 °C
COCCN(CC1=CCC(Oc2ccccc2)([N+](=O)[O-])C=C1)C(=O)C(Cl)Cl (stereo not given) | 116 to 117 °C
CN(C)c1ccc(NC(=O)N(C[C@@H]2CCCC[C@H]2CN(C(=O)Nc2ccc(N(C)C)cc2)C2CCCCC2)C2CCCCC2)cc1 (relative stereo) | 108 to 114 °C
COC(=O)c1ccc(CN2CCC(=O)C(C(c3ccccc3)c3ccccc3)C2)cc1 (stereo not given) | 107 to 108 °C
C[C@H]1CCCC(C)(C)[C@@H]1[C@H](O)c1ccc(C#N)cc1 | 106 to 108 °C
NC(=S)Nc1c(Cl)cccc1Cl | 158 to 160 °C
COc1ccc(C(=O)C=Cc2ccc(C#N)cc2)c(OC)c1OC | 132 to 133 °C
COP(=O)(NC1C(=O)N2C(C(=O)OCc3ccc([N+](=O)[O-])cc3)=C(C=CN(C)C)CSC12)OC (stereo not given) | 236 to 237 °C
FC(F)(F)c1cc(-c2ccccc2)nc(N2CCNCC2)n1 | 130 °C
O=c1ccn(CCOCCO)c(C(O)c2ccccc2)c1OCc1ccccc1 (stereo not given) | 157 to 159 °C
Fc1ccc(Nc2ccnc3cc(Cl)ccc23)cc1 | 214 to 216 °C
CC(C)C(Br)C(=O)Nc1ccccc1O (stereo not given) | 110 to 111 °C
COC(=O)c1ccnc(Cl)c1N | 91 to 92 °C
CSC1=CC2=CN(S)NN2C(SC)=N1 | 250 to 252 °C
CCOc1ccc2c(c1)n(C1CCCCC1)c(=O)n2Cc1ccc(S(=O)(=O)NC(C)(C)CC)cc1 | 165 °C

Compound | melting point
CC(=O)NNc1ccc(NC(=S)N(C)C)cc1 | 187 to 189 °C
Clc1ccc(-c2oncc2-c2ccncc2)cc1 | 121 °C
CCCCCCc1cc2c(cc1C(=O)Oc1ccc(C(=O)O)cn1)C(C)(C)CC2 | 104 to 105 °C
CC(SSc1ccccc1C(=O)Nc1ccc(S(N)(=O)=O)cc1)C(=O)O (stereo not given) | 268 to 270 °C
COC(=O)C1Oc2ccc(Cl)cc2C(c2ccccc2)(c2ccccc2)O1 (stereo not given) | 172 °C
CCCCc1c(C(C)C)nc(C(C)C)c(CO)c1-c1ccccc1 | 83 to 84 °C
CCC(Cc1ccc(OC)c(OCCc2ccccc2)c1)NC(=O)OC(C)(C)C (stereo not given) | 88.5 to 89.5 °C
COC(=O)COc1ccc(C(=O)NNC(=O)c2ccc(C(=N)SC)cc2)cc1 | 208 to 210 °C
CNC(=O)N(O)C(C)C#Cc1ccc(C(C)C)cc1 (stereo not given) | 146 to 147 °C
O=C(NC(=O)c1ccco1)NC1CCN(Cc2ccc3ccccc3c2)CC1 | 157 to 159 °C
CC(C)C(=O)N[C@@H]1CCc2c(c3cc(-c4ccno4)ccc3n2Cc2cccc(F)c2)C1 | 238 to 241 °C
C=CCNc1nc(NNC(C)(C)C)c2scc(C)c2n1 | 105 to 107 °C
O=C(O)C(CBr)(CBr)COCC(CBr)(CBr)C(=O)O | 189 to 193 °C
COC1CN=C(N2CCN(c3ccc(O)cc3)CC2)S1 (stereo not given) | 166 °C
CC[C@H](C)[C@H](NC(=O)O[C@@H](CC(C)C)C(=O)O)C(=O)NC(C)C | 179 to 180 °C
CC(O)CN(Oc1ccccc1C1CCCCC1)C1CCCC(C2CNC(=O)N2)C1 (stereo not given) | 117 to 120 °C
Cc1cccnc1-c1cncc(OC2SCC(O)C(O)C2O)c1 (stereo not given) | 162 to 175 °C
O=C1C2CC3CC2C(C(=O)O)(C3)N1Cc1ccccc1 (stereo not given) | 191 to 194 °C
Cn1ncc(/C=C/C(=O)Nc2ccc(Cc3nc4ccccc4[nH]3)cc2)c1-c1ccc(F)cc1 | > 300 °C
CC(NC(=O)C1CCCN1C(=O)CNP(=O)(Cc1ccccc1)Cc1ccccc1)C(=O)OCc1ccccc1 (stereo not given) | 77 to 80 °C
CCCCC12CCC3c4ccc(OC)cc4CCC3C1CCC2O (stereo not given) | 123 to 125 °C
Cc1cc(C(C)(C)C)c(O)c(C)c1COC(=O)CCCCC(=O)OCc1c(C)cc(C(C)(C)C)c(O)c1C | 156 to 158 °C
N#Cc1ccccc1OCCCCC(=O)O | 87 to 89 °C
Nc1ccc(-c2ccc(Cl)cc2)cn1 | 122 to 124 °C
CCCCOCCOc1ccc(-c2ccc3c(c2)C=C(C(=O)O)CCN3CC2CCC2)cc1 | 110 to 112 °C
CCCNC(=O)C(C)=Cc1ccc2c(c1)c(Cc1ccc(C(=O)NS(=O)(=O)c3ccccc3C)cc1OC)cn2CC(=O)N(C)C | 230 to 231 °C

Continued, values first:

melting point | Compound
310 to 313 °C | O=C(NCc1ccc(Cl)cc1)c1cnc2c(F)cc(O)cc2c1O
164 to 165 °C | Oc1ccc(Br)cc1-c1nc2ccccc2s1
158 to 161 °C | O=C(NCc1ccccc1)c1ccnc(-n2ccc(OCc3ccccc3)cc2=O)c1
153 to 161 °C | Nc1ccccc1C(=O)c1ccncc1
248 °C | Cn1nnnc1-c1ccc2oc3ncccc3c(=O)c2c1
76 to 77 °C | COc1ccc(C(=O)c2ccccc2N)cc1
329 to 336 °C | Nc1cc2c3c(cc(N)cc3c1)C(=O)N(O)C2=O
100 to 102 °C | CC(C)N(CCN1C(=O)C(=O)c2cc(F)ccc21)C(C)C
117 to 118 °C | C=CCOC(=O)c1ccc(-c2ccc3cc(OCCCCC(=O)OCC)c(C45CC6CC(CC(C6)C4)C5)cc3c2)cc1
155 to 157 °C | CS(=O)(=O)c1cccc(Cn2ccc(OCc3ccc(F)cc3F)c(Cl)c2=O)c1
131 to 133 °C | CCCCC(CC)C(=O)Nc1ccc2ccn(Cc3ccc(C(=O)CS(=O)(=O)c4ccccc4)cc3OC)c2c1 (stereo not given)
188 to 190 °C | Nc1ccc(S(=O)(=O)c2cc(-c3ccccc3Cl)nc(N3CCCC3)c2)cc1
159 to 162 °C | NCC1Cc2cc(-c3ccccc3)cc(-c3cc(Cl)ccc3Cl)c2O1 (stereo not given)
221 to 224 °C | Cn1c(=O)c2c(OCc3ccccc3)cccc2n2cnc(-c3noc(C4CC4)n3)c12
167 to 168 °C | C#CCc1cc(C(O)=S)cc(N)c1Oc1ccccc1
169 °C | COc1ccc2c(c1Cl)c(CC(=O)O)c(C)n2C(=O)c1ccc(Cl)s1
> 250 °C | O=C1c2ccccc2C(=O)N1Cc1cccc(CN2C(=O)c3ccccc3C2=O)n1
117 to 118 °C | CN(C(=O)C(C)(C)c1cc(C(F)(F)F)cc(C(F)(F)F)c1)c1cnc(NCCO)cc1-c1ccccc1Cl
198 to 200 °C | COc1ccc(CN2C(=O)[C@H](N3C(=O)c4ccccc4C3=O)[C@@H]2C(=O)OCc2ccccc2)c(OC)c1 (relative stereo)
125 to 126 °C | CC(C)(C)OC(=O)c1sc(NCc2ccccc2)c2c1CCCC2=O
152 to 154 °C | COc1ccc2c(c1)c(OC(C)C)c(C(N)=O)n2-c1ccccc1
163 °C | COc1ccc(-c2cc(C(=O)Nc3ccccc3)c(=O)n(CC3CC3)n2)cc1
214 to 215 °C | O=C(NCCO)c1cccc(-c2nc(=O)c3ccccc3s2)n1
121 °C | O=C1CCCc2cc(S(=O)(=O)c3ccccc3)ccc21

melting point | Compound
140 to 142 °C | COC(=O)CCC(=O)c1cc2cc(OC)c(OC)cc2o1
178 to 180 °C | CS(=O)(=O)c1ccc(-c2cnn(-c3cccc(Cl)c3)c(=O)c2Oc2cccc(F)c2)cc1
129 to 130 °C | COC(=O)C(Cc1c[nH]c2ccccc12)NC(=S)c1ccc2c(c1)OCO2 (stereo not given)
147 to 151 °C | O=C(Cc1cc(C(=O)c2ccc(I)c([N+](=O)[O-])c2)sc1-c1ccccc1)NO
200 to 201 °C | Nc1nc2cc(OCc3ccccc3)ccc2c2c1ncn2CCOc1ccccc1
119 to 120 °C | COc1nc(SCc2ccc(F)cc2)cnc1NS(=O)(=O)c1cccc(Cl)c1Cl
> 300 °C | O=c1c2ccc(O)cc2oc2oc3cc(O)ccc3c12
176 to 179 °C | CCOC(=O)c1cn(CC)c2cc(C(=O)C=CN(C)C)c(F)cc2c1=O
130 °C | CCOC(=O)c1ccc(OC)c(OCc2nc(C)c(C)nc2C)c1
346 °C | O=c1[nH]c2ccc(Cl)cc2n2cc(-c3ccccc3)cc12
82 to 84 °C | CC(=O)c1ccc2c(c1)Sc1ccccc1C=C2
229 to 230 °C | Cc1nc2c(N)nc3ccccc3c2n1CCCCNS(C)(=O)=O
216 to 218 °C | NS(=O)(=O)c1cc(C(=O)O)cc(NCCc2ccncc2)c1-c1ccccc1
> 250 °C | CCOCc1nc2c(N)nc3cc(-c4cccc(C(=O)O)c4)ccc3c2n1CC(C)(C)O
67 to 68 °C | Nc1ccc(OCc2ccccc2)cc1C=C(Br)Br
66 to 68 °C | CC(=O)OCc1ccc(C=Cc2csc3ccccc23)s1
271 to 274 °C | CCc1ccc2[nH]c(=O)[nH]c(=O)c2c1
128 °C | NS(=O)(=O)Oc1ccc2cc(C3CCCCC3)sc2c1
170 to 171 °C | COCCc1nc2c(N)nc3cc(OCc4ccccc4)ccc3c2n1CCCCNC(N)=O
207 to 217 °C | COc1cc2c(cc1Nc1ncc(Cl)c(Nc3ccc(C(N)=O)cc3OC)n1)CCN(CCS(C)(=O)=O)CC2
129 to 131 °C | COC(=O)c1cc2cc(OC)ccc2cc1O
133 to 135 °C | COc1ccc2[nH]c(CO)cc2c1C
139 to 143 °C | CC(C)(C#N)N1CCN(c2ccc(N3CC(CCC(N)=O)OC3=O)cc2F)CC1 (stereo not given)
112 °C | FC(F)(F)Sc1cn(-c2c(Cl)cc(C(F)(F)F)cc2Cl)c(Cl)n1
